Experimental data taken from patent publication US20140127827A1, “METHOD FOR DETECTION OF ANTIGEN USING FLUORESCENCE RESONANCE ENERGY TRANSFER IMMUNOASSAY” (priority 2012, published 2014).

Legend:
Type in all cases: binding
anti-BaP = experiment: FRET immunoassay for benzopyrene using antibodies (BaP/anti-BaP conjugate), incl. specificity to pyrene and DBA; conditions: same concentration as BaP (5 and 20 ng/mL), 10 mM NaHCO3 pH 9.0
Description: Under the condition of 10 mM NaHCO3 buffer solution (pH 9.0), BaPs having various concentrations (0, 0.1, 0.2, 0.5, 1, 2, 5, 10, 20 and 50 ng/mL) were reacted with antibodies having constant concentration at room temperature for 20 minutes to obtain BaP/anti-BaP conjugates. The obtained BaP/anti-BaP conjugates were excited at 280 nm to obtain a fluorescence spectrum (FIG. 18). Referring to FIGS. 18 and 19, it can be seen that, as the concentration of BaP increases, fluorescence intensity at a wavelength of 350 nm decreases, while fluorescence intensity at 435 nm increases at the same time.
Under the condition of 10 mM NaHCO3 buffer solution (pH 9.0), specificity of mouse IgG antibody (anti-Mouse IgG) to 5 ng/mL and 20 ng/mL BaP was investigated using FRET immunoassay. […] Further, specificity of anti-BaP to pyrene and dibenz[a,h]anthracene (DBA) having the same concentration as BaP was investigated.

anti-NPT = experiment: FRET immunoassay for neopterin using antibodies (NPT/anti-NPT conjugate), incl. specificity to BPT; conditions: 10 mM NaHCO3 pH 9.0
Description: Under the condition of 10 mM NaHCO3 buffer solution (pH 9.0), NPT of various concentrations (0 ng/mL, 0.2 ng/mL, 2 ng/mL and 20 ng/mL) was reacted with antibodies having a constant concentration at room temperature for 20 minutes to obtain NPT/anti-NPT conjugates. The obtained NPT/anti-NPT conjugates were excited at 280 nm to obtain fluorescence spectra (FIG. 14). Referring to FIG. 14, it can be seen that, as the concentration of NPT increases, the fluorescence intensity at a wavelength of 350 nm decreases.
Under the condition of 10 mM NaHCO3 buffer solution (pH 9.0), specificity of mouse IgG antibody (anti-Mouse IgG), IFN-γ antibody (anti-IFN-γ) and CRP antibody (anti-CRP) to 2 ng/mL and 20 ng/mL of NPT was investigated using FRET immunoassay. […] Further, specificity of anti-NPT with BPT having the same concentration as NPT was investigated.

anti-OTA antibody = experiment: FRET immunoassay using an intact antibody (OTA/anti-OTA conjugate); conditions: 0, 10, 100 ng/mL; 25 mM MEST pH 6.0; excitation 280 nm
Description: (§1) Using 25 mM MEST buffer solution (containing 0.3% Tween 20 in MES buffer solution, pH 6.0), mycotoxins of various concentrations (0 ng/mL, 10 ng/mL and 100 ng/mL) were reacted with antibodies having a constant concentration at room temperature for 20 minutes to obtain mycotoxin/antibody conjugates (AFB1/anti-AFB1 conjugate, OTA/anti-OTA conjugate, and ZEN/anti-ZEN conjugate). The obtained mycotoxin/antibody conjugates were excited at 280 nm to obtain fluorescence spectra (FIG. 4). Referring to FIG. 4, it can be seen that, as the concentration of mycotoxins (AFB1, OTA and ZEN) increases, the fluorescence intensity at a wavelength of 350 nm decreases.

anti-AFB1 Fab = experiment: FRET immunoassay using Fab fragment (anti-AFB1 Fab), incl. specificity to OTA
Description: Under the condition of 25 mM MEST buffer solution (pH 6.0), AFB1 of various concentrations (0, 0.1, 0.2, 0.5, 1, 2, 10, 20, 50 and 100 ng/mL) was reacted with anti-AFB1 Fab fragments having a constant concentration at room temperature for 20 minutes to obtain AFB1/anti-AFB1 Fab conjugates. The obtained AFB1/anti-AFB1 Fab conjugates were excited at 280 nm to obtain fluorescence spectra (FIG. 7). Referring to FIG. 7, it can be seen that, as the concentration of AFB1 increases, the fluorescence intensity at a wavelength of 350 nm decreases. Particularly, it can also be seen that sensitivity of FRET immunoassay using Fab fragments was much better than that of FRET immunoassay using an intact antibody of Example 1 (FIG. 8). Further, as a result of analysis by lowering the concentration of AFB1, it can be seen that approximately up to 0.09 ng/mL of AFB1 could be detected through FRET immunoassay using Fab fragments. This corresponds to a near 10-fold improvement in terms of sensitivity as compared to FRET immunoassay where an intact antibody of Example 1 was used. […]

anti-ZEN antibody = experiment: FRET immunoassay using an intact antibody (ZEN/anti-ZEN conjugate); conditions: 0, 10, 100 ng/mL; 25 mM MEST pH 6.0; excitation 280 nm
Description: as §1

anti-AFB1 antibody = conditions: pH 6

Compound: c1ccc2c(c1)ccc1cc3c(ccc4ccccc43)cc12 [DBA, dibenz[a,h]anthracene]
- binding to anti-BaP (specificity) (anti-BaP): a little antigen/antibody binding

Compound: Nc1nc2ncc([C@H](O)[C@H](O)CO)nc2c(=O)[nH]1 [NPT, neopterin]
- fluorescence intensity at 350 nm as concentration increases (anti-NPT; 0, 0.2, 2, 20 ng/mL NPT, excitation 280 nm): decreases

Compound: biopterin [BPT]
- binding to anti-NPT (specificity) (anti-NPT; BPT at same concentration as NPT (2 and 20 ng/mL)): no antigen/antibody binding

Compound: C[C@@H]1Cc2c(Cl)cc(C(=O)N[C@@H](Cc3ccccc3)C(=O)O)c(O)c2C(=O)O1 [OTA, ochratoxin A]
- fluorescence intensity at 350 nm as concentration increases (anti-OTA antibody): decreases
- binding to anti-AFB1 Fab (specificity) (anti-AFB1 Fab; OTA at same concentration as AFB1 (10 and 50 ng/mL), MEST buffer pH 6.0): no antigen/antibody binding

Compound: C[C@H]1CCCC(=O)CCC/C=C/c2cc(O)cc(O)c2C(=O)O1 [ZEN, zearalenone]
- fluorescence intensity at 350 nm as concentration increases (anti-ZEN antibody): decreases

Compound: c1cc2ccc3cccc4ccc(c1)c2c34 [pyrene]
- binding to anti-BaP (specificity) (anti-BaP): a little antigen/antibody binding

Compound: COc1cc2c(c3oc(=O)c4c(c13)CCC4=O)[C@@H]1C=CO[C@@H]1O2 [AFB1, aflatoxin]
- fluorescence intensity at 350 nm as concentration increases (anti-AFB1 antibody): decreases
- fluorescence intensity at 350 nm as concentration increases (anti-AFB1 Fab; pH 6): decreases
